Measured values taken from US10385057B2, “Pyrazole compounds and methods of making and using same” (Lundbeck La Jolla Research Center, Inc., priority 2015, dated 2019).

Tests used:
MAGL = target: T1, MAGL (Mus musculus, UniProt O35678); experiment: In vitro competitive activity-based protein profiling, mouse MAGL; assay type: biochemical; conditions: for inhibition at 1 µM: read-out: MAGL % inh. 1 μM (mouse)
T1 construct: mouse brain membrane fraction or cell lysates for mouse assays; from tissue
T1 sequence (O35678 1-303): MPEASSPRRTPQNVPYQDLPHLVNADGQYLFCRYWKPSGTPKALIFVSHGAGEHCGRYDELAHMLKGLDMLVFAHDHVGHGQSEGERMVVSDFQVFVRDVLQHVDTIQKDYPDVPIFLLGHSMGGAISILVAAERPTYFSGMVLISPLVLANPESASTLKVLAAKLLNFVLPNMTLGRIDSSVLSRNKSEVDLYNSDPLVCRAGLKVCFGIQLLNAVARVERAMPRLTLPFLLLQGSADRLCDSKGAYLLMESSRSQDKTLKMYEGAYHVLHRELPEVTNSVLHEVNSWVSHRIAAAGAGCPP
Description: (§1) In Vitro Competitive Activity-Based Protein Profiling.
(§2) Proteomes (mouse brain membrane fraction or cell lysates for mouse assays; human prefrontal cortex or cell membrane fractions for human assays) (50 μL, 1.0 mg/mL total protein concentration) were preincubated with varying concentrations of inhibitors at 37° C. After 30 min, FP-Rh or HT-01 (1.0 μL, 50 μM in DMSO) was added and the mixture was incubated for another 30 min at 37° C. Reactions were quenched with SDS loading buffer (15 μL—4×) and run on SDS-PAGE. Following gel imaging, serine hydrolase activity was determined by measuring fluorescent intensity of gel bands corresponding to MAGL and FAAH using ImageJ 1.43u software.

FAAH = target: T2, FAAH (Mus musculus, UniProt O08914); experiment: In vitro competitive activity-based protein profiling, mouse FAAH; assay type: biochemical; conditions: for inhibition at 1 µM: read-out: FAAH % inh. 1 μM (mouse)
T2 construct: mouse brain membrane fraction or cell lysates for mouse assays; from tissue
T2 sequence (O08914 1-579): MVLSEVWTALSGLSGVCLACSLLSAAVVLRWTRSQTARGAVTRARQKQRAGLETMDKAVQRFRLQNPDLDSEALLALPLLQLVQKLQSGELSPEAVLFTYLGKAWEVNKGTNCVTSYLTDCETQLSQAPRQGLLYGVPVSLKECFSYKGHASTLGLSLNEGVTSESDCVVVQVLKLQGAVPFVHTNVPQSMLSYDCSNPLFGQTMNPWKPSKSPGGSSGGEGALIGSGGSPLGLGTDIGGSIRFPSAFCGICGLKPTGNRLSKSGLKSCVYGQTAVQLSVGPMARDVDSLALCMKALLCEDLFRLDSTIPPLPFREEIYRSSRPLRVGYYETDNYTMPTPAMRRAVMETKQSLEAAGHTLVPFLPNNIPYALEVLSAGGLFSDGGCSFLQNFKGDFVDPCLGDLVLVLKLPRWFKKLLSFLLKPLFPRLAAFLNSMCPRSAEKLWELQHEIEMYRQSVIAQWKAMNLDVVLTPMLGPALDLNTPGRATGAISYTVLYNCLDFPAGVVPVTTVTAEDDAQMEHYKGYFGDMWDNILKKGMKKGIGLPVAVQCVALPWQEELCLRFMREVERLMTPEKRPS
Description: as §1, §2

| SMILES | IC50 (MAGL) [µM] | inhibition at 1 µM (MAGL) [%] | IC50 (FAAH) [µM] | inhibition at 1 µM (FAAH) [%] |
| --- | --- | --- | --- | --- |
| O=C(N1CCC2(CCN(Cc3cccc(Cl)c3)C2)C1)n1cc(Cl)cn1 (single isomer, unassigned) [Example 132, (4-chloro-1H-pyrazol-1-yl)(7-(3-chlorobenzyl)-2,7-diazaspiro[4.4]nonan-2-yl)methanone] | 0.1 to 1 | ≥ 75 | ≤ 0.1 | ≥ 75 |
| O=C(N1CCC2(CCN(Cc3cccc(Cl)c3)C2)C1)n1cc(Cl)cn1 (single isomer, unassigned) [Example 133, (4-chloro-1H-pyrazole-1-carbonyl)-7-[(3-chlorophenyl)methyl]-2,7-diazaspiro[4.4]nonane] | 0.1 to 1 |  | ≤ 0.1 |  |
| O=C(N1CCC2(CCN(Cc3ccc(Cl)c(Cl)c3)C2)C1)n1cc(Cl)cn1 (single isomer, unassigned) [Example 139, (4-chloro-1H-pyrazol-1-yl)(7-(3,4-dichlorobenzyl)-2,7-diazaspiro[4.4]nonan-2-yl)methanone] | 0.1 to 1 |  | ≤ 0.1 |  |
| O=C(N1CCC2(CCN(Cc3ccc(Cl)c(Cl)c3)C2)C1)n1cc(Cl)cn1 (single isomer, unassigned) [Example 140, (4-chloro-1H-pyrazol-1-yl)(7-(3,4-dichlorobenzyl)-2,7-diazaspiro[4.4]nonan-2-yl)methanone] | ≤ 0.1 |  | ≤ 0.1 |  |
| O=C(c1cnn(C(=O)N2CC3CN(Cc4ccccc4Cl)CC3C2)c1)N1CCCCC1 (stereo not drawn) [Example 1, (5-(2-chlorobenzyl)hexahydropyrrolo[3,4-c]pyrrol-2(1H)-yl)(4-(piperidine-1-carbonyl)-1H-pyrazol-1-yl)methanone] | 1 to 10 | 25 to 50 | ≤ 0.1 | ≥ 75 |
| NC(=O)c1cnn(C(=O)N2CC3CN(Cc4ccc(N5CCOCC5)cc4C(F)(F)F)CC3C2)c1 (stereo not drawn) [Example 2, 1-(5-(4-morpholino-2-(trifluoromethyl)benzyl)octahydropyrrolo[3,4-c]pyrrole-2-carbonyl)-1H-pyrazole-4-carboxamide] | ≤ 0.1 | ≥ 75 | ≤ 0.1 | ≥ 75 |
| O=C(c1cnn(C(=O)N2CC3CN(Cc4cccc(Cl)c4)CC3C2)c1)N1CCCCC1 (stereo not drawn) [Example 3, (5-(3-chlorobenzyl)hexahydropyrrolo[3,4-c]pyrrol-2(1H)-yl)(4-(piperidine-1-carbonyl)-1H-pyrazol-1-yl)methanone] | 1 to 10 | 50 to 75 | 0.1 to 1 | ≥ 75 |
| O=C(c1cnn(C(=O)N2CC3CN(Cc4ccc(Cl)cc4)CC3C2)c1)N1CCCCC1 (stereo not drawn) [Example 4, (5-(4-chlorobenzyl)hexahydropyrrolo[3,4-c]pyrrol-2(1H)-yl)(4-(piperidine-1-carbonyl)-1H-pyrazol-1-yl)methanone] | 1 to 10 | 25 to 50 | 0.1 to 1 | ≥ 75 |
| O=C(c1cnn(C(=O)N2CC3CN(Cc4cc(Cl)ccc4Cl)CC3C2)c1)N1CCOCC1 (stereo not drawn) [Example 5, (5-(2,5-dichlorobenzyl)hexahydropyrrolo[3,4-c]pyrrol-2(1H)-yl)(4-(morpholine-4-carbonyl)-1H-pyrazol-1-yl)methanone] |  | ≥ 75 |  | ≥ 75 |
| O=C(c1cnn(C(=O)N2CC3CN(Cc4cc(Cl)ccc4Cl)CC3C2)c1)N1CCN(C2CC2)CC1 (stereo not drawn) [Example 6, (4-cyclopropylpiperazin-1-yl)(1-(5-(2,5-dichlorobenzyl)octahydropyrrolo[3,4-c]pyrrole-2-carbonyl)-1H-pyrazol-4-yl)methanone] |  | ≥ 75 |  | 0 to 25 |
| O=C(c1cnn(C(=O)N2CC3CN(Cc4cccc(C(F)(F)F)c4)CC3C2)c1)N1CCOCC1 (stereo not drawn) [Example 7, (4-(morpholine-4-carbonyl)-1H-pyrazol-1-yl)(5-(3-(trifluoromethyl)benzyl)hexahydropyrrolo[3,4-c]pyrrol-2(1H)-yl)methanone] |  | ≥ 75 |  | ≥ 75 |
| O=C(c1cnn(C(=O)N2CC3CN(Cc4cccc(C(F)(F)F)c4)CC3C2)c1)N1CCN(C2CC2)CC1 (stereo not drawn) [Example 8, (4-cyclopropylpiperazin-1-yl)(1-(5-(3-(trifluoromethyl)benzyl)octahydropyrrolo[3,4-c]pyrrole-2-carbonyl)-1H-pyrazol-4-yl)methanone] |  | ≥ 75 |  | ≥ 75 |
| O=C(c1cnn(C(=O)N2CC3CN(Cc4cc(Cl)cc(C(F)(F)F)c4)CC3C2)c1)N1CCCC1 (stereo not drawn) [Example 9, (5-(3-chloro-5-(trifluoromethyl)benzyl)hexahydropyrrolo[3,4-c]pyrrol-2(1H)-yl)(4-(pyrrolidine-1-carbonyl)-1H-pyrazol-1-yl)methanone] |  | ≥ 75 |  | ≥ 75 |
| O=C(c1cnn(C(=O)N2CC3CN(Cc4cc(Cl)cc(C(F)(F)F)c4)CC3C2)c1)N1CCOCC1 (stereo not drawn) [Example 10, (5-(3-chloro-5-(trifluoromethyl)benzyl)hexahydropyrrolo[3,4-c]pyrrol-2(1H)-yl)(4-(morpholine-4-carbonyl)-1H-pyrazol-1-yl)methanone] |  | ≥ 75 |  | ≥ 75 |
| O=C(c1cnn(C(=O)N2CC3CN(Cc4cc(Cl)cc(C(F)(F)F)c4)CC3C2)c1)N1CCN(C2CC2)CC1 (stereo not drawn) [Example 11, (5-(3-chloro-5-(trifluoromethyl)benzyl)hexahydropyrrolo[3,4-c]pyrrol-2(1H)-yl)(4-(4-cyclopropylpiperazine-1-carbonyl)-1H-pyrazol-1-yl)methanone] |  | ≥ 75 |  | ≥ 75 |
| O=C(c1cnn(C(=O)N2CC3CN(Cc4ccc(N5CCOCC5)cc4C(F)(F)F)CC3C2)c1)N1CCCC1 (stereo not drawn) [Example 12, (5-(4-morpholino-2-(trifluoromethyl)benzyl)hexahydropyrrolo[3,4-c]pyrrol-2(1H)-yl)(4-(pyrrolidine-1-carbonyl)-1H-pyrazol-1-yl)methanone] |  | ≥ 75 |  | ≥ 75 |
| O=C(c1cnn(C(=O)N2CC3CN(Cc4ccc(N5CCOCC5)cc4C(F)(F)F)CC3C2)c1)N1CCOCC1 (stereo not drawn) [Example 13, (4-(morpholine-4-carbonyl)-1H-pyrazol-1-yl)(5-(4-morpholino-2-(trifluoromethyl)benzyl)hexahydropyrrolo[3,4-c]pyrrol-2(1H)-yl)methanone] |  | ≥ 75 |  | ≥ 75 |
| O=C(c1cnn(C(=O)N2CC3CN(Cc4ccc(N5CCOCC5)cc4C(F)(F)F)CC3C2)c1)N1CCN(C2CC2)CC1 (stereo not drawn) [Example 14, (4-cyclopropylpiperazin-1-yl)(1-(5-(4-morpholino-2-(trifluoromethyl)benzyl)octahydropyrrolo[3,4-c]pyrrole-2-carbonyl)-1H-pyrazol-4-yl)methanone] | 0.1 to 1 | ≥ 75 | 1 to 10 | ≥ 75 |
| O=C(c1cnn(C(=O)N2CC3CN(Cc4cccc(C(F)(F)F)c4)CC3C2)c1)N1CCCC1 (stereo not drawn) [Example 15, pyrrolidin-1-yl(1-(5-(3-(trifluoromethyl)benzyl)octahydropyrrolo[3,4-c]pyrrole-2-carbonyl)-1H-pyrazol-4-yl)methanone] |  | ≥ 75 |  | ≥ 75 |
| NC(=O)c1cnn(C(=O)N2CC3CN(Cc4ccc(Cl)cc4)CC3C2)c1 (stereo not drawn) [Example 16, 1-(5-(4-chlorobenzyl)octahydropyrrolo[3,4-c]pyrrole-2-carbonyl)-1H-pyrazole-4-carboxamide] | 0.1 to 1 | ≥ 75 | ≤ 0.1 | ≥ 75 |
